# System: circulating TNFα
# Test: Circulating TNFα versus time post inflammatory trigger (FIG. 17)
# Type: in vivo
# Settings: systemic inflammatory event; equal doses
# From the text: FIG. 17 includes a graph illustrating the relative percentage of circulating TNFα versus time post inflammatory trigger for a control, CBD and packaged CBD application.
compound,measurement,value
"C=C(C)[C@@H]1CCC(C)=C[C@H]1c1c(O)cc(CCCCC)cc1O [CBD, Cannabidiol]",effect on relative concentration of circulating TNFα,able to quell a systemic inflammatory event

# Source: US20210030678A1, “CANNABINOID AND CBD LIPOSOME FORMULATIONS AND USES THEREOF” (Medterra Pharma, priority 2019, published 2021)
